Our source for the GI50 and TGI values is PubChem BioAssay (NCI).

Among the test systems are HCT-116 colon; HCT-15 colon; HOP-62 NSCLC; MDA-MB-231 breast; NCI-H522 lung; NCI/ADR-RES ovarian; OVCAR-3 ovarian; RPMI-8226 leukemia; SW-620 colon; UACC-62 melanoma.
What all share (test): inhibition of tumour cell growth, NCI panel, 48 h

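Cells were grown in 96-well plates and exposed to each compound for 48 hours at five concentrations; endpoints were interpolated linearly between bracketing concentrations, or set to the highest concentration if not reached. GI50: concentration for 50% inhibition of growth. Definition used: TGI = concentration required for complete inhibition of growth.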 Bounds are passed on as bounds.

Take `Cc1ccsc1-c1ccc2c(c1)COC2(CCCN(C)C)c1ccc(F)cc1` (stereo not given): the GI50 in the assay with HCT-116 colon was 1.88 µM; in the assay with HCT-15 colon it was 3.09 µM; with HOP-62 NSCLC, 3.16 µM; in the assay on MDA-MB-231 breast, 1.84 µM; with NCI-H522 lung, 3.02 µM; with NCI/ADR-RES ovarian, 3.83 µM. Also, the GI50 in the assay on OVCAR-3 ovarian was 2.64 µM; in the assay with RPMI-8226 leukemia, 2.12 µM; in the assay with SW-620 colon, 1.78 µM; in the assay with UACC-62 melanoma, 1.89 µM. Moreover, the TGI is 3.7 µM in the assay on HCT-116 colon; 10.9 µM with HCT-15 colon; 12.8 µM with HOP-62 NSCLC; 6 µM in the assay on MDA-MB-231 breast; 12.4 µM in the assay with NCI-H522 lung; 15.2 µM in the assay on NCI/ADR-RES ovarian. Further, the TGI turned out to be 9.02 µM in the assay on OVCAR-3 ovarian, 4.88 µM in the assay with RPMI-8226 leukemia, 3.75 µM with SW-620 colon and 4.04 µM in the assay with UACC-62 melanoma.

`CC/C=C\C[C@H](O)C/C=C1/C(=O)C=C[C@@H]1C/C=C\CCCCO`: the GI50 in the assay on HCT-116 colon was 1.7 µM; in the assay with HCT-15 colon, 1.58 µM; in the assay with HOP-62 NSCLC it was 2.12 µM; with MDA-MB-231 breast, 3.92 µM; with NCI-H522 lung it was 1.74 µM; in the assay on NCI/ADR-RES ovarian it was 3.35 µM. Further, the GI50 in the assay on OVCAR-3 ovarian was 3.72 µM; in the assay with RPMI-8226 leukemia, 2.52 µM; in the assay on SW-620 colon, 2.98 µM; in the assay with UACC-62 melanoma, 1.87 µM. The TGI is 3.33 µM with HCT-116 colon; 4.57 µM in the assay with HCT-15 colon; 5 µM with HOP-62 NSCLC; 14.9 µM in the assay with MDA-MB-231 breast; 3.95 µM in the assay with NCI-H522 lung; 38.4 µM in the assay with NCI/ADR-RES ovarian. Besides, the TGI is 12.9 µM with OVCAR-3 ovarian, 10.4 µM with RPMI-8226 leukemia, 15.2 µM with SW-620 colon and 5.46 µM in the assay with UACC-62 melanoma.

`O=C1CC(N2C(=O)/C(=C/C(Cl)=C\c3ccc([N+](=O)[O-])cc3)SC2=S)C(=O)N1c1ccc(O)cc1` (stereo not given): the GI50 in the assay with HCT-116 colon is 0.751 µM; with HCT-15 colon, 0.472 µM; with HOP-62 NSCLC, 2.26 µM; in the assay on MDA-MB-231 breast it was 2.14 µM; in the assay on NCI-H522 lung it was 1.86 µM; in the assay on NCI/ADR-RES ovarian, 2.13 µM. Moreover, the GI50 in the assay with OVCAR-3 ovarian was 0.604 µM; in the assay with RPMI-8226 leukemia it was 0.295 µM; with SW-620 colon, 0.684 µM; in the assay with UACC-62 melanoma, 1.67 µM. Further, the TGI was 2.14 µM in the assay on HCT-116 colon; 1.95 µM with HCT-15 colon; 6.63 µM in the assay on HOP-62 NSCLC; 5.06 µM in the assay with MDA-MB-231 breast; 4.23 µM in the assay with NCI-H522 lung; 12.1 µM in the assay with NCI/ADR-RES ovarian. Besides, the TGI with OVCAR-3 ovarian was determined as 1.96 µM; in the assay on RPMI-8226 leukemia it was 4.36 µM; in the assay with SW-620 colon it was 2.28 µM; in the assay with UACC-62 melanoma, 3.38 µM.

For the compound `CC(C)Cc1ccc(C(C)C(=O)NCc2ccc(Cn3c(=O)sn(CCCI)c3=O)cc2)cc1` (stereo not given), the GI50 is 0.134 µM in the assay on HCT-116 colon; 0.237 µM in the assay with HCT-15 colon; 1.53 µM in the assay with HOP-62 NSCLC; 1.13 µM in the assay on MDA-MB-231 breast; 0.309 µM in the assay on NCI-H522 lung; 1.35 µM in the assay with NCI/ADR-RES ovarian. The GI50 with OVCAR-3 ovarian is 0.269 µM; in the assay with RPMI-8226 leukemia, 0.34 µM; with SW-620 colon, 0.259 µM; in the assay on UACC-62 melanoma, 1.17 µM. Besides, the TGI came out at 0.393 µM in the assay with HCT-116 colon; 0.738 µM with HCT-15 colon; 3.6 µM in the assay with HOP-62 NSCLC; 2.42 µM in the assay on MDA-MB-231 breast; 1.04 µM in the assay on NCI-H522 lung; 5.19 µM with NCI/ADR-RES ovarian. Besides, the TGI worked out at 0.791 µM in the assay on OVCAR-3 ovarian, 2.2 µM with RPMI-8226 leukemia, 0.75 µM in the assay on SW-620 colon and 2.44 µM with UACC-62 melanoma.

In the case of `C=CC(=O)Nc1cccc(Oc2nc(Nc3ccc(N4CCN(C)CC4)cc3OC)ncc2Cl)c1`, the GI50 with HCT-116 colon was 1.64 µM; in the assay with HCT-15 colon, 2.59 µM; in the assay with HOP-62 NSCLC, 3.01 µM; in the assay with MDA-MB-231 breast it was 1.94 µM; in the assay with NCI-H522 lung, 0.308 µM; in the assay with NCI/ADR-RES ovarian, 1.88 µM. Besides, the GI50 in the assay with OVCAR-3 ovarian is 1.7 µM; in the assay with RPMI-8226 leukemia, 1.97 µM; in the assay with SW-620 colon, 1.47 µM; in the assay on UACC-62 melanoma it was 1.87 µM. The TGI in the assay with HCT-116 colon stood at 3.06 µM; in the assay on HCT-15 colon, 10.7 µM; in the assay on HOP-62 NSCLC it was 12.1 µM; in the assay on MDA-MB-231 breast, 4.12 µM; in the assay on NCI-H522 lung, 1.75 µM; with NCI/ADR-RES ovarian, 5.69 µM. Moreover, the TGI with OVCAR-3 ovarian stood at 4.44 µM; in the assay on RPMI-8226 leukemia, 5.1 µM; in the assay with SW-620 colon it was 2.96 µM; in the assay on UACC-62 melanoma it was 3.58 µM.

Turning to `O=C1c2cc(F)ccc2-c2c1c1ccc([N+](=O)[O-])cc1c(=O)n2CCCBr`, the GI50 with HCT-116 colon is 7.23 µM; in the assay on HCT-15 colon it was 56.8 µM; in the assay on HOP-62 NSCLC, 2.28 µM; in the assay with MDA-MB-231 breast, over 100 µM; in the assay with NCI-H522 lung it was 4.87 µM; with NCI/ADR-RES ovarian, 4.37 µM. Also, the GI50 in the assay on OVCAR-3 ovarian was 46.8 µM; in the assay with RPMI-8226 leukemia, 5.98 µM; with SW-620 colon it was 10.2 µM; in the assay on UACC-62 melanoma, 22.8 µM. In addition, the TGI in the assay with HCT-116 colon is 36.7 µM; in the assay with HCT-15 colon, over 100 µM; in the assay with HOP-62 NSCLC it was 8.64 µM; in the assay on MDA-MB-231 breast it was over 100 µM; with NCI-H522 lung it was over 100 µM; with NCI/ADR-RES ovarian, 41.3 µM. Also, the TGI is over 100 µM in the assay on OVCAR-3 ovarian, 51.8 µM with RPMI-8226 leukemia, over 100 µM in the assay with SW-620 colon and 77.7 µM in the assay with UACC-62 melanoma.

Take `O=C1NC(=NCCc2ccccn2)S/C1=C\c1ccc2ncccc2c1`: the GI50 in the assay with HCT-116 colon is 8.25 µM; in the assay with HCT-15 colon, 7.2 µM; in the assay on HOP-62 NSCLC, 13.9 µM; in the assay on MDA-MB-231 breast, 18.5 µM; in the assay with NCI-H522 lung it was 9.02 µM; in the assay on NCI/ADR-RES ovarian, over 18.5 µM. The GI50 in the assay on OVCAR-3 ovarian is 9.88 µM; in the assay with RPMI-8226 leukemia, 13.1 µM; in the assay on SW-620 colon, 8.33 µM; in the assay on UACC-62 melanoma, 9.73 µM. The TGI with HCT-116 colon was over 25 µM; in the assay with HCT-15 colon, over 25 µM; in the assay with HOP-62 NSCLC it was over 25 µM; with MDA-MB-231 breast, over 25 µM; in the assay on NCI-H522 lung, over 22.6 µM; in the assay on NCI/ADR-RES ovarian, over 25 µM. The TGI in the assay with OVCAR-3 ovarian, in the assay with RPMI-8226 leukemia, with SW-620 colon and in the assay on UACC-62 melanoma was over 25 µM in each case.
